In patent US10584128B2, “Bicyclic dihydropyrimidine-carboxamide derivatives as Rho-Kinase inhibitors” (CHIESI FARMACEUTICI S.p.A., priority 2016, dated 2020) one finds Ki data, which are given here for 23 molecules.

In assay [1] the target is Rho kinase 1 (Homo sapiens, UniProt Q13464). As to the kind of experiment: In vitro Rho kinase inhibitory activity assay (ADP-Glo kit, Myelin Basic Protein substrate). It is filed as biochemical. The following applies: 10 μM ATP, 25° C., read-out: ROCK1 inhibitory activity (Ki, range of activity). Summed up: (§1)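 Kinase activity is measured as ADP production (ADP-Glo, luminescence) after 1 hour at 25 °C with 10 μM ATP and 2.5 μM Myelin Basic Protein, following 30 min enzyme–compound preincubation. Buffer is 40 mM Tris pH7.5, 20 mM MgCl2, 0.1 mg/ml BSA, 50 μM DTT.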
For orientation: In ADP-Glo the light output rises with the ADP produced.

In assay [2] the target is Rho kinase 2 (Homo sapiens, UniProt O75116). Described as above. It is filed as biochemical. The following applies: 10 μM ATP, 25° C., read-out: ROCK2 inhibitory activity (Ki, range of activity). Summed up: as §1
Rho kinase 2, sequence (O75116 whole entry): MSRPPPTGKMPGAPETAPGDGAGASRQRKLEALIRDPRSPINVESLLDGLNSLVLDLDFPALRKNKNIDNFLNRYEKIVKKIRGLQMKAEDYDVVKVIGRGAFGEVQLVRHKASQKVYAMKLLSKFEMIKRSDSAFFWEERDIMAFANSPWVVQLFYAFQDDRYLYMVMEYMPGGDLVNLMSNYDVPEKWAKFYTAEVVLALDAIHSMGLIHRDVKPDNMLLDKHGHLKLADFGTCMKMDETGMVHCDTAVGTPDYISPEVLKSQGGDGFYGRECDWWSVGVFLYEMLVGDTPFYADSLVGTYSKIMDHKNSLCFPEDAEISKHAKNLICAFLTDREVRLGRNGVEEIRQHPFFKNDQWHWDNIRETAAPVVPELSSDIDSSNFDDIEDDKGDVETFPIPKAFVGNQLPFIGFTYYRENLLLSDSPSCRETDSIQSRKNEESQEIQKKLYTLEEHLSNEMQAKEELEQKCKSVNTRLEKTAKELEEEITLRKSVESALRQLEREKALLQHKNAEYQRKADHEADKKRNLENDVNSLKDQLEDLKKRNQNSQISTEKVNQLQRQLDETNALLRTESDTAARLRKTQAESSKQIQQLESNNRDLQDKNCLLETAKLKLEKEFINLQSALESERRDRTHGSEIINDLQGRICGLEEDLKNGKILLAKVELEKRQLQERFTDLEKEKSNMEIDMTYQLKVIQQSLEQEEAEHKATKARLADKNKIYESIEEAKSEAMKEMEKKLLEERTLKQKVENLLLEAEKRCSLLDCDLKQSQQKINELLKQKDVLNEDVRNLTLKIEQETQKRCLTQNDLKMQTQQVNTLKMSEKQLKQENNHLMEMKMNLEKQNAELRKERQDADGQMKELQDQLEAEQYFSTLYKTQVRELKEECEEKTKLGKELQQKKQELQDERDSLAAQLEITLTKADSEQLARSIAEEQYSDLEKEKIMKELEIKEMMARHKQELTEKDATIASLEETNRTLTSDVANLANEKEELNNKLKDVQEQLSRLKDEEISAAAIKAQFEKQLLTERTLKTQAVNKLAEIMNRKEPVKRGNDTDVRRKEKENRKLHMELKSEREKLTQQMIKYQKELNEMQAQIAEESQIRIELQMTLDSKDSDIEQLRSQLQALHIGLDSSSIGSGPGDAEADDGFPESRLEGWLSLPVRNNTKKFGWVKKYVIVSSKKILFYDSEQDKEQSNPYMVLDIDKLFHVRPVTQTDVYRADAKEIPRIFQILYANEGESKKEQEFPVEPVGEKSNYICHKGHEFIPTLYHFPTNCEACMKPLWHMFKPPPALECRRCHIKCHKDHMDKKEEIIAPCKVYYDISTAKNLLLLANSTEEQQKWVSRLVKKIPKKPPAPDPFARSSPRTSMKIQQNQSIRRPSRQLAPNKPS

Rho kinase 1, sequence (Q13464 whole entry): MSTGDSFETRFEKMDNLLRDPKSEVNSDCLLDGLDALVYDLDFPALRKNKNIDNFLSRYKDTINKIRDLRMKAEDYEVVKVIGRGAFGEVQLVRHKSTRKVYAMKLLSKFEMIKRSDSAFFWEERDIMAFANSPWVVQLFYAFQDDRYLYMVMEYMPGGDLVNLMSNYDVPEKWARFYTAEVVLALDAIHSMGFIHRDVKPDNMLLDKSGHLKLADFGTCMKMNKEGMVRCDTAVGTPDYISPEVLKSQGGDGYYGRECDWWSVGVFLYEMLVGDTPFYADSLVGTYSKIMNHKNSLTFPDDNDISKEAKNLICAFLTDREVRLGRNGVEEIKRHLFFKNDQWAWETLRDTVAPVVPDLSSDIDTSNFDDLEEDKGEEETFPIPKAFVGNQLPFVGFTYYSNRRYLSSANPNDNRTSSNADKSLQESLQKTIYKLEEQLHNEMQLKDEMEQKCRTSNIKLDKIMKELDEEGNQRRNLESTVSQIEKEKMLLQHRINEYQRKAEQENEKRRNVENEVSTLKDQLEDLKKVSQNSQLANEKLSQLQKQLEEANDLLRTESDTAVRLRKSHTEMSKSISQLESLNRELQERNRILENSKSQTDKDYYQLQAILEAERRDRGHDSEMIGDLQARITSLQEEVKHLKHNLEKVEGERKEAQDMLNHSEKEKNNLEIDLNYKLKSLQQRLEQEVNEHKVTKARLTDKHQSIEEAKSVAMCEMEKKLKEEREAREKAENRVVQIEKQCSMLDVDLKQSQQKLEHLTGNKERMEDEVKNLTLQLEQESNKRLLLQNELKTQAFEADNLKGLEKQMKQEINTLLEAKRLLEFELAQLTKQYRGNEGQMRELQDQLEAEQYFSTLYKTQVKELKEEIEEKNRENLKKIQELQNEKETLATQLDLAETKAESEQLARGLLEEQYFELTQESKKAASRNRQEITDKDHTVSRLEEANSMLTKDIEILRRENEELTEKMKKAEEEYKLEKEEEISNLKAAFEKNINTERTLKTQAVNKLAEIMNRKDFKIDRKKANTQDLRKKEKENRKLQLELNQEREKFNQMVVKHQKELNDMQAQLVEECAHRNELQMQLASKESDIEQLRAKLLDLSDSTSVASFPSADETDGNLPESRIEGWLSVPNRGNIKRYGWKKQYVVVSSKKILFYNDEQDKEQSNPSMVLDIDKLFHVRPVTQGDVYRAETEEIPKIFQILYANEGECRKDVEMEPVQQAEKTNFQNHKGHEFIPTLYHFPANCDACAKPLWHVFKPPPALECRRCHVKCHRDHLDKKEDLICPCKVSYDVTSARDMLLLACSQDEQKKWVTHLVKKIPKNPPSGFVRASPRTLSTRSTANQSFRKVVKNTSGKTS

With `CC1=C(C(=O)Nc2ccc3cnccc3c2)C(c2ccc(C)c(F)c2)n2nc(CO)cc2N1` (stereo not shown) [Example 58, 7-(3-fluoro-4-methylphenyl)-2-(hydroxymethyl)-N-(isoquinolin-6-yl)-5-methyl-4,7-dihydropyrazolo[1,5-a]pyrimidine-6-carboxamide], the Ki in assay [1] and in assay [2] was under 50 nM in each case.

In the case of `CC1=C(C(=O)Nc2ccc3cnccc3c2)C(c2ccc(C)cc2F)n2nc(CO)cc2N1` (stereo not shown) [Example 59, 7-(2-fluoro-4-methylphenyl)-2-(hydroxymethyl)-N-(isoquinolin-6-yl)-5-methyl-4,7-dihydropyrazolo[1,5-a]pyrimidine-6-carboxamide], the Ki in assay [1] and in assay [2] was under 50 nM in each case.

Take `CC1=C(C(=O)Nc2ccc3cnccc3c2)C(c2ccc3cc[nH]c3c2)n2nc(CO)cc2N1` (stereo not shown) [Example 63, 2-(hydroxymethyl)-7-(1H-indol-6-yl)-N-(isoquinolin-6-yl)-5-methyl-4,7-dihydropyrazolo[1,5-a]pyrimidine-6-carboxamide]: the Ki in assay [1] and in assay [2] was under 50 nM throughout.

Regarding `CC1=C(C(=O)Nc2ccc3cnccc3c2)C(c2ccc(Cl)cc2F)n2nc(CO)cc2N1` (stereo not shown) [Example 64, 7-(4-chloro-2-fluorophenyl)-2-(hydroxymethyl)-N-(isoquinolin-6-yl)-5-methyl-4,7-dihydropyrazolo[1,5-a]pyrimidine-6-carboxamide], the Ki in assay [1] and in assay [2] was under 50 nM in each case.

Take `CC1=C(C(=O)Nc2ccc3cnccc3c2)C(c2ccc(C)cc2)n2nc(CO)cc2N1` (stereo not shown) [Example 66, 2-(hydroxymethyl)-N-(isoquinolin-6-yl)-5-methyl-7-(p-tolyl)-4,7-dihydropyrazolo[1,5-a]pyrimidine-6-carboxamide]: the Ki in assay [1] and in assay [2] was under 50 nM in each case.

`CC1=C(C(=O)Nc2ccc3[nH]ncc3c2)C(c2ccc(C)cc2)n2nc(CO)cc2N1` (stereo not shown) [Example 67, 2-(hydroxymethyl)-N-(1H-indazol-5-yl)-5-methyl-7-(p-tolyl)-4,7-dihydropyrazolo[1,5-a]pyrimidine-6-carboxamide]: the Ki in assay [1] and in assay [2] was under 50 nM in each case.

Consider `CC1=C(C(=O)Nc2ccc3[nH]ncc3c2)C(c2ccc(Cl)cc2F)n2nc(CO)cc2N1` (stereo not shown) [Example 68, 7-(4-chloro-2-fluorophenyl)-2-(hydroxymethyl)-N-(1H-indazol-5-yl)-5-methyl-4,7-dihydropyrazolo[1,5-a]pyrimidine-6-carboxamide], for which the Ki in assay [1] and in assay [2] was under 50 nM throughout.

As to `CC1=C(C(=O)Nc2ccc3[nH]ncc3c2)C(c2ccc(Cl)nc2)n2nc(CO)cc2N1` (stereo not shown) [Example 70, 7-(6-chloropyridin-3-yl)-2-(hydroxymethyl)-N-(1H-indazol-5-yl)-5-methyl-4,7-dihydropyrazolo[1,5-a]pyrimidine-6-carboxamide], the Ki in assay [1] and in assay [2] was under 50 nM in each case.

As to `CC1=C(C(=O)Nc2ccc3[nH]ncc3c2)C(c2ccc(C(F)(F)F)cc2)n2nc(C(=O)O)cc2N1` (stereo not shown) [Example 73, 6-((1H-indazol-5-yl)carbamoyl)-5-methyl-7-(4-(trifluoromethyl)phenyl)-4,7-dihydropyrazolo[1,5-a]pyrimidine-2-carboxylic acid], the Ki in assay [1] and in assay [2] was under 50 nM each time.

`CC1=C(C(=O)Nc2ccc3[nH]ncc3c2)C(c2ccc(C)cc2)n2nc(C(=O)O)cc2N1` (stereo not shown) [Example 74, 6-((1H-indazol-5-yl)carbamoyl)-5-methyl-7-(p-tolyl)-4,7-dihydropyrazolo[1,5-a]pyrimidine-2-carboxylic acid]: the Ki in assay [1] and in assay [2] was under 50 nM throughout.

On to `CC1=C(C(=O)Nc2ccc3[nH]ncc3c2)C(c2ccc(F)cc2)n2nc(C(=O)O)cc2N1` (stereo not shown) [Example 75, 6-((1H-indazol-5-yl)carbamoyl)-7-(4-fluorophenyl)-5-methyl-4,7-dihydropyrazolo[1,5-a]pyrimidine-2-carboxylic acid], for which the Ki in assay [1] and in assay [2] was under 50 nM each time.

As for `CC1=C(C(=O)Nc2ccc3[nH]ncc3c2)C(c2ccc(C(F)(F)F)cc2)n2nc(C(=O)N3CCN(C)CC3)cc2N1` (stereo not shown) [Example 76, N-(1H-indazol-5-yl)-5-methyl-2-(4-methylpiperazine-1-carbonyl)-7-(4-(trifluoromethyl)phenyl)-4,7-dihydropyrazolo[1,5-a]pyrimidine-6-carboxamide], the Ki in assay [1] and in assay [2] was under 50 nM in each case.

With `CC1=C(C(=O)Nc2ccc3cnccc3c2)C(c2ccc(C(F)(F)F)c(F)c2)n2nc(C(=O)NCCN3CCCCC3)cc2N1` (stereo not shown) [Example 77, 7-(3-fluoro-4-(trifluoromethyl)phenyl)-N6-(isoquinolin-6-yl)-5-methyl-N2-(2-(piperidin-1-yl)ethyl)-4,7-dihydropyrazolo[1,5-a]pyrimidine-2,6-dicarboxamide], the Ki in assay [1] and in assay [2] was under 50 nM in each case.

On to `CC1=C(C(=O)Nc2ccc3cnccc3c2)C(c2ccc(C(F)(F)F)c(F)c2)n2nc(C(=O)NCCN(C)C)cc2N1` (stereo not shown) [Example 79, N2-(2-(dimethylamino)ethyl)-7-(3-fluoro-4-(trifluoromethyl)phenyl)-N6-(isoquinolin-6-yl)-5-methyl-4,7-dihydropyrazolo[1,5-a]pyrimidine-2,6-dicarboxamide], for which the Ki in assay [1] and in assay [2] was under 50 nM in each case.

In the case of `CC1=C(C(=O)Nc2ccc3cnccc3c2)C(c2ccc(C(F)(F)F)c(F)c2)n2nc(C(=O)N(C)CCN(C)C)cc2N1` (stereo not shown) [Example 80, N2-(2-(dimethylamino)ethyl)-7-(3-fluoro-4-(trifluoromethyl)phenyl)-N6-(isoquinolin-6-yl)-N2,5-dimethyl-4,7-dihydropyrazolo[1,5-a]pyrimidine-2,6-dicarboxamide], the inhibition constant (Ki) in assay [1] and in assay [2] was under 50 nM each time.

On to `CC1=C(C(=O)Nc2ccc3cnccc3c2)C(c2ccc(C(F)(F)F)c(F)c2)n2nc(C(=O)NCCN3CCN(C)CC3)cc2N1` (stereo not shown) [Example 81, 7-(3-fluoro-4-(trifluoromethyl)phenyl)-N6-(isoquinolin-6-yl)-5-methyl-N2-(2-(4-methylpiperazin-1-yl)ethyl)-4,7-dihydropyrazolo[1,5-a]pyrimidine-2,6-dicarboxamide], for which the Ki in assay [1] and in assay [2] was under 50 nM each time.

In the case of `CC1=C(C(=O)Nc2ccc3cnccc3c2)C(c2ccc(C(F)(F)F)c(F)c2)n2nc(C(=O)NCCN3CCOCC3)cc2N1` (stereo not shown) [Example 82, 7-(3-fluoro-4-(trifluoromethyl)phenyl)-N6-(isoquinolin-6-yl)-5-methyl-N2-(2-morpholinoethyl)-4,7-dihydropyrazolo[1,5-a]pyrimidine-2,6-dicarboxamide], the Ki in assay [1] and in assay [2] was under 50 nM throughout.

`CC1=C(C(=O)Nc2ccc3cnccc3c2)C(c2ccc(C(F)(F)F)c(F)c2)n2nc(C(=O)N(C)CCN3CCOCC3)cc2N1` (stereo not shown) [Example 83, 7-(3-fluoro-4-(trifluoromethyl)phenyl)-N6-(isoquinolin-6-yl)-N2,5-dimethyl-N2-(2-morpholinoethyl)-4,7-dihydropyrazolo[1,5-a]pyrimidine-2,6-dicarboxamide]: the Ki in assay [1] and in assay [2] was under 50 nM each time.

As for `CC1=C(C(=O)Nc2ccc3cnccc3c2)C(c2ccc(C(F)(F)F)c(F)c2)n2nc(C(=O)NCC3CCN(C)CC3)cc2N1` (stereo not shown) [Example 84, 7-(3-fluoro-4-(trifluoromethyl)phenyl)-N6-(isoquinolin-6-yl)-5-methyl-N2-((1-methylpiperidin-4-yl)methyl)-4,7-dihydropyrazolo[1,5-a]pyrimidine-2,6-dicarboxamide], the Ki in assay [1] and in assay [2] was under 50 nM in each case.

Take `CC1=C(C(=O)Nc2ccc3cnccc3c2)C(c2ccc(C(F)(F)F)c(F)c2)n2nc(C(=O)N(C)CC3CCN(C)CC3)cc2N1` (stereo not shown) [Example 85, 7-(3-fluoro-4-(trifluoromethyl)phenyl)-N6-(isoquinolin-6-yl)-N2,5-dimethyl-N2-((1-methylpiperidin-4-yl)methyl)-4,7-dihydropyrazolo[1,5-a]pyrimidine-2,6-dicarboxamide]: the Ki in assay [1] and in assay [2] was under 50 nM in each case.

Regarding `CC1=C(C(=O)Nc2ccc3cnccc3c2)C(c2ccc(C(F)(F)F)c(F)c2)n2nc(C(=O)N3C[C@H]4CN(C)C[C@H]4C3)cc2N1` (stereo partly shown) [Example 86, 7-(3-fluoro-4-(trifluoromethyl)phenyl)-N-(isoquinolin-6-yl)-5-methyl-2-(5-methyloctahydropyrrolo[3,4-c]pyrrole-2-carbonyl)-4,7-dihydropyrazolo[1,5-a]pyrimidine-6-carboxamide], the Ki in assay [1] and in assay [2] was under 50 nM in each case.

As for `CC1=C(C(=O)Nc2ccc3cnccc3c2)C(c2ccc(C(F)(F)F)c(F)c2)n2nc(C(=O)N3CCC(N(C)C)CC3)cc2N1` (stereo not shown) [Example 87, 2-(4-(dimethylamino)piperidine-1-carbonyl)-7-(3-fluoro-4-(trifluoromethyl)phenyl)-N-(isoquinolin-6-yl)-5-methyl-4,7-dihydropyrazolo[1,5-a]pyrimidine-6-carboxamide], the inhibition constant Ki in assay [1] and in assay [2] was under 50 nM each time.

Turning to `CC1=C(C(=O)Nc2ccc3cnccc3c2)C(c2ccc(C(F)(F)F)c(F)c2)n2nc(C(=O)N(C)C3CCN(C)CC3)cc2N1` (stereo not shown) [Example 88, 7-(3-fluoro-4-(trifluoromethyl)phenyl)-N6-(isoquinolin-6-yl)-N2,5-dimethyl-N2-(1-methylpiperidin-4-yl)-4,7-dihydropyrazolo[1,5-a]pyrimidine-2,6-dicarboxamide], the Ki in assay [1] and in assay [2] was under 50 nM in each case.

Usually Ki stands for the dissociation constant of the complex between target and ligand, obtained from inhibition or displacement.
